Test results from patent US6531139B1, “Self-emulsifying formulation for lipophilic compounds” (Pharmacia & Upjohn Company, priority 1997, dated 2003).

Test: aqueous solubility in buffer
Assay type: physicochemical
Details: buffer of pH 6.5 (close to the pH of the intestine)
Procedure: However, like many other HIV protease inhibitors, these compounds are characteristically lipophilic and thus poorly water soluble. For example, the compound of formula I has an aqueous solubility about 1 μg/ml in the buffer of pH 6.5 (close to the pH of the intestine), which is considered as extremely poor aqueous solubility and would be expected to provide very low oral bioavailability in the free acid form.

For CCC[C@@]1(CCc2ccccc2)CC(O)=C([C@H](CC)c2cccc(NS(=O)(=O)c3ccc(C(F)(F)F)cn3)c2)C(=O)O1 [compound of formula I], which solubility is on record?
Its solubility is roughly 1 µg/mL.
